According to ChEMBL document CHEMBL2331140, “A novel series of tacrine-selegiline hybrids with cholinesterase and monoamine oxidase inhibition activities for the treatment of Alzheimer's disease” (Eur J Med Chem, 2013):

Assays:
[1] = target: T1, Amine oxidase [flavin-containing] B (Homo sapiens, UniProt P27338); conditions: read-out: INH
T1 sequence (P27338 whole entry): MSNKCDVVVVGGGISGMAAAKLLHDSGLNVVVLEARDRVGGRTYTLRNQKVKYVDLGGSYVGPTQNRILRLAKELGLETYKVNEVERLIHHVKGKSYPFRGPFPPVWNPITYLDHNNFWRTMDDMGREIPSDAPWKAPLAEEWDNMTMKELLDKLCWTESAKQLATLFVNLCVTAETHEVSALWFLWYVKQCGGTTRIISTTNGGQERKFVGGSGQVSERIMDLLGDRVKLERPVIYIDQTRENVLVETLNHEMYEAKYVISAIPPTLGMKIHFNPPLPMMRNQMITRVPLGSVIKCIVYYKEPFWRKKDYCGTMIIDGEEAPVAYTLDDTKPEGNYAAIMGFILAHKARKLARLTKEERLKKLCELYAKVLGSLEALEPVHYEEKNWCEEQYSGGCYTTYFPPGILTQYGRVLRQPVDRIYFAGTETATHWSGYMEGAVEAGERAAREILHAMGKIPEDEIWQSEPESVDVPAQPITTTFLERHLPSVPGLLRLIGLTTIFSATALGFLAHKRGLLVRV

[2] = target: T1, Amine oxidase [flavin-containing] B; conditions: 20 min, read-out: INH
Cholinesterase = Cholinesterase (Equus caballus, UniProt P81908)
Cholinesterase, sequence (P81908 whole entry): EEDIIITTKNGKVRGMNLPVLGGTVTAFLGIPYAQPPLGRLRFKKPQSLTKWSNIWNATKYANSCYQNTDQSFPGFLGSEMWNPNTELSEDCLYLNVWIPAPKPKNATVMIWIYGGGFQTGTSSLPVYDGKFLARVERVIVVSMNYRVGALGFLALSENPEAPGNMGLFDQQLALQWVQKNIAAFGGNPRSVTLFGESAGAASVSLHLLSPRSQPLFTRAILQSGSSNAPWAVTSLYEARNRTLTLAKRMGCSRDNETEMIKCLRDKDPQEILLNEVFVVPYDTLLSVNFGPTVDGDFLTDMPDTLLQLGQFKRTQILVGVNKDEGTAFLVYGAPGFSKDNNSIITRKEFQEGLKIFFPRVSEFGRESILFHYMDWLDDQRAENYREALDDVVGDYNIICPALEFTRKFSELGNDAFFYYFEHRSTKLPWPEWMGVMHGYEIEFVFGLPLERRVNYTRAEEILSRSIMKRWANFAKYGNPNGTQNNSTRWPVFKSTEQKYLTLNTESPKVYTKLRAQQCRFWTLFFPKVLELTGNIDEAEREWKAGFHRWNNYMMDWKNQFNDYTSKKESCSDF
Description: Inhibition of horse serum BChE using butyrylthiocholine chloride as substrate after 15 mins by Ellman's method

Acetylcholinesterase = Acetylcholinesterase (Electrophorus electricus, UniProt O42275)
Acetylcholinesterase, sequence (O42275 whole entry): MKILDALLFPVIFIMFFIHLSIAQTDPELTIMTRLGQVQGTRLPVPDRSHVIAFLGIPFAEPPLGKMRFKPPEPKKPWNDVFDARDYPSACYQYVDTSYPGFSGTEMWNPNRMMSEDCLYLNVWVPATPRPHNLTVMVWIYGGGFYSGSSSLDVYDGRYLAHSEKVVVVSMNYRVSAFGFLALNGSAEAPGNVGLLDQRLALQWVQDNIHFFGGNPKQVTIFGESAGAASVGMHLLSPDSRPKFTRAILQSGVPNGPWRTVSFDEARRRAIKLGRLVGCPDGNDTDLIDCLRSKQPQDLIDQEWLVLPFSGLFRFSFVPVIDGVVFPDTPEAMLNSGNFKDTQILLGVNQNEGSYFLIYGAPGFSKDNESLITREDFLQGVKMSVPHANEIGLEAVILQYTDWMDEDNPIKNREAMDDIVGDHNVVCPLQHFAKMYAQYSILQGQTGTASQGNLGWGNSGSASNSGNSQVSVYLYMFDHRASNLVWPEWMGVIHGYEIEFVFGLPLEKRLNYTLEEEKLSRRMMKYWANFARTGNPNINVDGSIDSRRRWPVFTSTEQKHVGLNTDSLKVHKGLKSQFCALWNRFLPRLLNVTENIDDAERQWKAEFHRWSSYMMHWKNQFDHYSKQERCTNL
Description: Inhibition of electric eel AChE using acetylthiocholine chloride as substrate after 15 mins by Ellman's method

[3] = Selectivity index, ratio of IC50 for recombinant human MAO-A to IC50 for recombinant human MAO-B
[4] = target: T1, Amine oxidase [flavin-containing] B
Description: Inhibition of recombinant human MAO-B using p-benzylamine substrate preincubated for 15 mins before substrate addition measured after 20 mins by fluorescence assay

[5] = target: T2, Amine oxidase [flavin-containing] A (Homo sapiens, UniProt P21397)
T2 sequence (P21397 whole entry): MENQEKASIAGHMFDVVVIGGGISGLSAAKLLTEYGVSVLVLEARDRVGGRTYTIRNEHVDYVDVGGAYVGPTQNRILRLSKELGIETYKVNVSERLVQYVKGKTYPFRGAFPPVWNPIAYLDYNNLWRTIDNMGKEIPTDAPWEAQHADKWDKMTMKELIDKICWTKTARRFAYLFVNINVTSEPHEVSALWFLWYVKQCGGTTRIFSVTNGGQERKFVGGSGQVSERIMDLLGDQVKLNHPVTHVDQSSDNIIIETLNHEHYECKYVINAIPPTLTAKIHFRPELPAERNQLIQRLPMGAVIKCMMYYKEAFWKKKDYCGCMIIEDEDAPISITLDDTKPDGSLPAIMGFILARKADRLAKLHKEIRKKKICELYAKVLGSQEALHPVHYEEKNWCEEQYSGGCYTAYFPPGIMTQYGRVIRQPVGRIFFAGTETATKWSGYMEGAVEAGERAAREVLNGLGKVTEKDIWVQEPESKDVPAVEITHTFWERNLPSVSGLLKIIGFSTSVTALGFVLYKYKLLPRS
Description: Inhibition of recombinant human MAO-A using p-tyramine substrate preincubated for 15 mins before substrate addition measured after 20 mins by fluorescence assay

| Compound | inhibition at 0.2 µM [1] | inhibition at 0.2 µM [2] | IC50 (Cholinesterase) | IC50 (Acetylcholinesterase) | Ratio IC50 [3] | IC50 [4] | IC50 [5] |
| --- | --- | --- | --- | --- | --- | --- | --- |
| C#CCN(C)[C@H](C)Cc1ccc(OCCCCCCCCCNc2c3c(nc4ccccc24)CCCC3)cc1 | 81.6% | 70.8% | 9.37 nM | 22.6 nM | – | – | – |
| C#CCN(C)[C@H](C)Cc1ccc(OCCCCCNc2c3c(nc4ccccc24)CCCC3)cc1 | – | – | 23.5 nM | 77.6 nM | 0.5 | 2400 nM | 1260 nM |
| C#CCN(C)[C@H](C)Cc1ccc(OCCCNc2c3c(nc4ccccc24)CCCC3)cc1 | – | – | 41.4 nM | 36.1 nM | 9.7 | 4460 nM | 43400 nM |
| C#CCN(C)[C@H](C)Cc1ccc(OCCNc2c3c(nc4ccccc24)CCCC3)cc1 | – | – | 50.6 nM | 83.1 nM | 7 | 693 nM | 4860 nM |
| C#CCN(C)[C@H](C)Cc1ccc(OCCCCNc2c3c(nc4ccccc24)CCCC3)cc1 | – | – | 39.6 nM | 53 nM | 0.8 | 8550 nM | 7000 nM |
| C#CCN(CCCCCCNc1c2c(nc3ccccc13)CCCC2)[C@H](C)Cc1ccc(OC)cc1 | – | – | 28.7 nM | 456 nM | 1.9 | 18100 nM | 33800 nM |
| C#CCN(C)[C@H](C)Cc1ccc(OCCCNc2c3c(nc4cc(Cl)ccc24)CCCC3)cc1 | – | – | 66 nM | 14.2 nM | 0.8 | 11100 nM | 9050 nM |
| C#CCN(C)[C@H](C)Cc1ccc(OCCCCCNc2c3c(nc4cc(Cl)ccc24)CCCC3)cc1 | – | – | 18.6 nM | 82 nM | 0.5 | 6210 nM | 2860 nM |
| C#CCN(C)[C@H](C)Cc1ccc(OCCCCCCCCCCNc2c3c(nc4ccccc24)CCCC3)cc1 | – | – | 2.03 nM | 23.2 nM | 0.9 | 346 nM | 313 nM |
| C#CCN(C)[C@H](C)Cc1ccc(OCCCCCCCCNc2c3c(nc4cc(Cl)ccc24)CCCC3)cc1 | – | – | 17.6 nM | 55.4 nM | 1.5 | 129 nM | 193 nM |
| C#CCN(C)[C@H](C)Cc1ccc(OCCCCCCCCNc2c3c(nc4ccccc24)CCCC3)cc1 | – | – | 35.5 nM | 147 nM | 3.5 | 167 nM | 591 nM |
| C#CCN(C)[C@H](C)Cc1ccc(OCCCCCCNc2c3c(nc4cc(Cl)ccc24)CCCC3)cc1 | – | – | 18.8 nM | 79.3 nM | 1 | 519 nM | 521 nM |
| C#CCN(C)[C@H](C)Cc1ccc(OCCCCCCNc2c3c(nc4ccccc24)CCCC3)cc1 | – | – | 16.1 nM | 138 nM | 1.9 | 209 nM | 398 nM |
